Measurements from US20250296929A1, “NOVEL HEPATOSELECTIVE POLYADENYLATING POLYMERASES INHIBITORS AND THEIR METHOD OF USE” (BARUCH S. BLUMBERG INSTITUTE, priority 2021, published 2025).

Experiments:
[1] = molecular target: T1, OATP1B1 (Homo sapiens, UniProt Q9Y6L6); assay: OATP1B1 transporter substrate uptake in OATP1B1-HEK293 cells; assay type: in vitro ADME; settings: for Uptake Ratio (−/+Inhibitor): OATP1B1-HEK293 cells, inhibitor Rifamycin SV; for Uptake Ratio (Transporter(−Inhibitor)/Mock(−Inhibitor)): OATP1B1-HEK293 vs Mock (normal HEK293)
T1 construct: expressed in transfected cells; host or cells: HEK293
T1 sequence (Q9Y6L6 1-691): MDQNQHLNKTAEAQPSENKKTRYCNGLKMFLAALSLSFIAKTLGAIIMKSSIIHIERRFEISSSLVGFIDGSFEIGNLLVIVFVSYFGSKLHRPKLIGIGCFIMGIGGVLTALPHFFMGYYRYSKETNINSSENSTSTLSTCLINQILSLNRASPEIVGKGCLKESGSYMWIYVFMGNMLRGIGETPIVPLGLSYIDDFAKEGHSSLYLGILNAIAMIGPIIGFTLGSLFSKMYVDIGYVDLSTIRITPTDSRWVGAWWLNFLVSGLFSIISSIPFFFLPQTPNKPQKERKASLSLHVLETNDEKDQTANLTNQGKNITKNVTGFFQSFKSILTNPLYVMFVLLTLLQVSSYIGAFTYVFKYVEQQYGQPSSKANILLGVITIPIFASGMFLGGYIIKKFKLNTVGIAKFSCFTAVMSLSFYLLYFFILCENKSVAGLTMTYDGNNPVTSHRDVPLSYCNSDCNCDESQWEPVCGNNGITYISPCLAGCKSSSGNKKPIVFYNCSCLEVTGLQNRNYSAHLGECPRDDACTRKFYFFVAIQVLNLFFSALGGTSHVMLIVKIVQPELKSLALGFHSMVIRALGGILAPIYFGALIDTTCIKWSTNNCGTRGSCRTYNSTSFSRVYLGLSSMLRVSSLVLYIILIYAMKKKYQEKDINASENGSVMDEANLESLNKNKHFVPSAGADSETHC

[2] = molecular target: T2, OATP1B3 (Homo sapiens, UniProt Q9NPD5); assay: OATP1B3 transporter substrate uptake in OATP1B3-HEK293 cells; assay type: in vitro ADME; settings: for Uptake Ratio (−/+Inhibitor): OATP1B3-HEK293 cells, inhibitor Rifamycin SV; for Uptake Ratio (Transporter(−Inhibitor)/Mock(−Inhibitor)): OATP1B3-HEK293 vs Mock
T2 construct: expressed in transfected cells; host or cells: HEK293
T2 sequence (Q9NPD5 1-702): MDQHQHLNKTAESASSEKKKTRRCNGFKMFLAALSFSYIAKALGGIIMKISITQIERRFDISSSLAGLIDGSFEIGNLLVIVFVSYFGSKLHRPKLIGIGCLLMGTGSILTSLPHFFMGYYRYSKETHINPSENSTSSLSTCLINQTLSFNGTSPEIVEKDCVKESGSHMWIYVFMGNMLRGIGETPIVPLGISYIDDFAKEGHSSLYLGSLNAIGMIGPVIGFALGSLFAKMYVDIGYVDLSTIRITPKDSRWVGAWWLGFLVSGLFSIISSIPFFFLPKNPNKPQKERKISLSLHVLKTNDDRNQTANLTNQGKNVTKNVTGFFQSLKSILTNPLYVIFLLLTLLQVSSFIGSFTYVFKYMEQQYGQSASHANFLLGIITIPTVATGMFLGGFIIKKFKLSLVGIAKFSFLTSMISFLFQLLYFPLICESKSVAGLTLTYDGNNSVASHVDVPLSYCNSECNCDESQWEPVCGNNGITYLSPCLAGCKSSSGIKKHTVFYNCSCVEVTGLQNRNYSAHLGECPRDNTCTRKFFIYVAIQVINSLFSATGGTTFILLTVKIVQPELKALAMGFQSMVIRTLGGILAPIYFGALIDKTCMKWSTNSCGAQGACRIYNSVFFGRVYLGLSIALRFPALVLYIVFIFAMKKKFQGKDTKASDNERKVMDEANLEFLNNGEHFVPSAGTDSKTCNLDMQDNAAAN
Description: Protocol for identification of compounds that are substrates of transporters OATP1B1 and OATP1B3. Transfected HTEK293 and vector control HTEK293 cells were cultured in 24-well poly-D-lysine or collagen-coated tissue culture plates ([…]) for 2 and 10 minutes respectively in transport buffer (HIBSSg, pH 7.4, pre-warmed to 37° C.). At a defined time point, the uptake experiments were stopped by removing dosing solution followed by two washes of ice-cold HIBSSg buffer. The cells were lysed for 2 minutes with […] containing an appropriate internal standard (when available). Lysis buffer were chilled to −20° C., and the plate was kept on ice during lysis. The cell lysate was transferred into a 96-well plate for sample analysis with LC-MS/MS analysis to determine concentration of test compound in cell lysate. The uptake of test compounds was normalized by total cell protein using the BCA Protein Assay Kit following the manufacturer's protocol. The inhibitor Rifamycin SV was used to block OATP1B1 and OATP1B3 transporter activity in order to determine uptake ratios.

[3] = tested on: HBV; settings: oral treatment, HBV infected uPA-SCID mice harboring human hepatocytes; cited from earlier work
[4] = tested on: woodchuck hepatitis virus (WHV); settings: oral administration, woodchucks chronically infected with WHV; cited from earlier work
[5] = in words; cited from earlier work
[6] = tested on: HBsAg secretion, HBV producing cell line HepG2.2.15; assay: Cellular assay: HBsAg inhibition in HBV producing cell line HepG2.2.15; assay type: cell-based; settings: Hepatitis B virus
Description: (§1) Cellular assays method 1: Cellular assays: The HBV producing cell line HepG2.2.15 was cultured in DMEM/F12 containing 10% fetal bovine serum (FBS), 100 U/ml penicillin and 100 μg/ml streptomycin (Invitrogen). Compounds of the disclosure in DMSO was added into the culture medium when cell reached 100% confluence. The final concentration of DMSO was adjusted to 0.5%. Culture medium was replaced in two days and the cell was cultured for additional two days in the presence of compound. HBsAg inhibition in culture medium was then detected with AlphaLisa assay using anti-HBsAg antibodies of 10-H05H and 60C-CR2100RB from Fitzgerald Internantional. To examine the change of nucleic acid, total RNA was extracted with Trizol reagents and resolved in glyoxal agarose gel. HBV RNA blotted onto nitrocellulose membrane was measured with P32 labeled ribo-probe. Reduction and shortening of viral RNA indicates on target effect of the tested compound. […] HepG2.2.15 cells were first seeded in 96-well plate (Corning, Cat #: CLS3595) at density of 10,000 cells/well in 100 ul DMEM/F12 medium containing 10% FBS. When cells reached 100% confluence, treatment with compounds of the disclosure was initiated, and cells were cultured in the way as described for HBsAg inhibition study. Four days post drug treatment, 100 ul of CellTiter-Glo reagents (Promega, Cat #G7570) were added into each well and the mixture was incubated at 23° C. for 12 minutes, followed by the reading of luminescent signal in Tecan's Infinite 200 PRO. Compound IC50 on HBsAg and CC50 on cell viability were calculated using Graphpad prism. The IC50 and CC50 are defined as the compound concentration (or conditioned media log dilution) at which HBsAg secretion and cytotoxicity, respectively, are reduced by 50% compared to the no drug control.
(§2) Cellular assays method 2: HepG2.2.15 cells were seeded in duplicate into white, 96-well plates at 1.5×10^4 cells/well. The cells were treated with a 3-fold serial dilution series of the compounds in DMSO. The final DMSO concentration in all wells was 1%, and DMSO was used as no drug control. The HBsAg chemiluminescence immunoassay (CLIA) kit (Autobio Diagnostics Co., Zhengzhou, China) was used to measure the levels of secreted HBV antigens semi-quantitatively. For the detection, 50 μL/well culture supernatant was used and the procedure conducted as directed by manufacturer's instructions. The cytotoxicity was measured using CellTiter-Glo (Promega, Madison, WI, USA, catalogue no. G7571). Dose-response curves were generated and the IC50 and CC50 values were calculated using Graphpad prism. The IC50 and CC50 are defined as the compound concentration (or conditioned media log dilution) at which HBsAg secrection and cytotoxicity, respectively, are reduced by 50% compared to the no drug control.

[7] = Cellular toxicity (CellTiter-Glo) in HepG2.2.15 cells; assay type: cell-based; settings: human
Description: as §1, §2

SMILES	EC50 [6] [nM]	CC50 [7] [nM]	further results
COCCCOc1cc2c(cc1OC)-c1cc(=O)c(C(=O)O)cn1[C@H](C(C)C)C2 [DHQ-1]	–	–	Uptake Ratio (−/+Inhibitor) ([1]; test concentration 1 μM): 0.38; Uptake Ratio (Transporter(−Inhibitor)/Mock(−Inhibitor)) ([1]; test concentration 1 μM): 0.71; Uptake Ratio (−/+Inhibitor) ([2]; test concentration 1 μM): 0.42; Uptake Ratio (Transporter(−Inhibitor)/Mock(−Inhibitor)) ([2]; test concentration 1 μM): 0.56; Reduction of HBsAg in the circulation [3]: 1 log; Reduction of WHV and surface protein in the blood [4]: multi-log reductions; Toxicity observed [5]: acute neurotoxicity liabilities
COc1cc2c(cc1OCCCCCC(=O)O)C[C@@H](C(C)C)n1cc(C(=O)O)c(=O)cc1-2 [Example 4, (S)-9-((5-carboxypentyl)oxy)-6-isopropyl-10-methoxy-2-oxo-6,7-dihydro-2H-pyrido[2,1-a]isoquinoline-3-carboxylic acid]	87	> 10000	–
COc1cc2c(cc1OCC(=O)O)C[C@@H](C(C)C)n1cc(C(=O)O)c(=O)cc1-2 [Example 1, (S)-9-(carboxymethoxy)-6-isopropyl-10-methoxy-2-oxo-6,7-dihydro-2H-pyrido [2,1-a]isoquinoline-3-carboxylic acid]	10000	> 10000	–
COc1cc2c(cc1OCCCOCC(=O)O)C[C@@H](C(C)C)n1cc(C(=O)O)c(=O)cc1-2 [Example 5, (S)-9-(3-(carboxymethoxy)propoxy)-6-isopropyl-10-methoxy-2-oxo-6,7-dihydro-2H-pyrido[2,1-a]isoquinoline-3-carboxylic acid]	2780	> 10000	–
COc1cc2c(cc1OCCCCCCCCC(=O)O)C[C@@H](C(C)C)n1cc(C(=O)O)c(=O)cc1-2 [Example 8, (S)-9-((8-carboxyoctyl)oxy)-6-isopropyl-10-methoxy-2-oxo-6,7-dihydro-2H-pyrido[2,1-a]isoquinoline-3-carboxylic acid]	4.6	> 10000	–
COc1cc2c(cc1OCCCCC(=O)O)C[C@@H](C(C)C)n1cc(C(=O)O)c(=O)cc1-2 [Example 3, (S)-9-(4-carboxybutoxy)-6-isopropyl-10-methoxy-2-oxo-6,7-dihydro-2H-pyrido[2,1-a]isoquinoline-3-carboxylic acid]	380	> 10000	–
COc1cc2c(cc1OCCCC(=O)O)C[C@@H](C(C)C)n1cc(C(=O)O)c(=O)cc1-2 [Example 2, (S)-9-(3-carboxypropoxy)-6-isopropyl-10-methoxy-2-oxo-6,7-dihydro-2H-pyrido [2,1-a]isoquinoline-3-carboxylic acid]	1010	> 10000	–
COc1cc2c(cc1OCCCCCCCC(=O)O)C[C@@H](C(C)C)n1cc(C(=O)O)c(=O)cc1-2 [Example 7, (S)-9-((7-carboxyheptyl)oxy)-6-isopropyl-10-methoxy-2-oxo-6,7-dihydro-2H-pyrido[2,1-a]isoquinoline-3-carboxylic acid]	7.6	> 10000	–
C[C@]12CC[C@@H]3c4ccc(O)cc4CC[C@H]3[C@@H]1CC[C@@H]2O[C@@H]1O[C@H](C(=O)O)[C@@H](O)[C@H](O)[C@H]1O [Estradiol 17-β Glucuronide]	–	–	Uptake Ratio (−/+Inhibitor) ([1]; test concentration 10 μM): 81.84; Uptake Ratio (Transporter(−Inhibitor)/Mock(−Inhibitor)) ([1]; test concentration 10 μM): 48.70; Uptake Ratio (−/+Inhibitor) ([2]; test concentration 10 μM): 86.15; Uptake Ratio (Transporter(−Inhibitor)/Mock(−Inhibitor)) ([2]; test concentration 10 μM): 98.86
